Positions of bridges follow the written chain, without caps; N, C: chain ends. Non-standard residues stand in square brackets, D forms with d. Residues, ends and D or L forms follow the SMILES beside them. Phe(4-NO2) = N[C@@H](Cc1ccc([N+](=O)[O-])cc1)C(=O)O; Phe(4-tBu) = CC(C)(C)c1ccc(C[C@H](N)C(=O)O)cc1; Phe(4-Cl) = N[C@@H](Cc1ccc(Cl)cc1)C(=O)O; Phe(3-F) = N[C@@H](Cc1cccc(F)c1)C(=O)O; Phe(4-F) = N[C@@H](Cc1ccc(F)cc1)C(=O)O; Phe(4-Me) = Cc1ccc(C[C@H](N)C(=O)O)cc1; Phe(2-F) = N[C@@H](Cc1ccccc1F)C(=O)O; mTyr = N[C@@H](Cc1cccc(O)c1)C(=O)O; Pen = CC(C)(S)[C@H](N)C(=O)O
Key:
[1] = Compound was tested for the inhibition of [3H]- [D-Pen2, D-Pen5]-enkephalin (DPDPE) binding to Opioid receptor delta 1 in guinea pig brain homogenates
[2] = as above; remark: listed apart in the source
[3] = Compound was tested for the inhibition of [3H]- [D-Pen2, D-Pen5]-enkephalin (DPDPE) binding to opioid receptor delta in guinea pig brain homogenates

SMILES | Ki [1] | Ki [2] | Ki [3]
CC1(C)SSC[C@H](NC(=O)[C@@H](N)Cc2ccc(O)cc2)C(=O)N[C@@H](Cc2ccc(O)cc2)C(=O)N[C@@H]1C(=O)O (H-YCY[Pen]-OH; disulfide 2-4) | 26 nM |  | 
CC1(C)SSC[C@H](NC(=O)[C@@H](N)Cc2ccc(O)cc2)C(=O)N[C@@H](Cc2ccccc2F)C(=O)N[C@@H]1C(=O)O (H-YC[Phe(2-F)][Pen]-OH; disulfide 2-4) |  | 3.3 nM | 
CC1(C)SSC[C@H](NC(=O)[C@@H](N)Cc2ccc(O)cc2)C(=O)N[C@@H](Cc2cccc(F)c2)C(=O)N[C@@H]1C(=O)O (H-YC[Phe(3-F)][Pen]-OH; disulfide 2-4) |  | 2.9 nM | 
CC1(C)SSC[C@H](NC(=O)[C@@H](N)Cc2ccc(O)cc2)C(=O)N[C@@H](Cc2ccc(Cl)cc2)C(=O)N[C@@H]1C(=O)O (H-YC[Phe(4-Cl)][Pen]-OH; disulfide 2-4) |  | 0.98 nM | 
CC1(C)SSC[C@H](NC(=O)[C@@H](N)Cc2ccc(O)cc2)C(=O)N[C@@H](Cc2ccc(F)cc2)C(=O)N[C@@H]1C(=O)O (H-YC[Phe(4-F)][Pen]-OH; disulfide 2-4) | 1.1 nM |  | 
Cc1ccc(C[C@@H]2NC(=O)[C@@H](NC(=O)[C@@H](N)Cc3ccc(O)cc3)CSSC(C)(C)[C@@H](C(=O)O)NC2=O)cc1 (H-YC[Phe(4-Me)][Pen]-OH; disulfide 2-4) |  | 5.4 nM | 
CC1(C)SSC[C@H](NC(=O)[C@@H](N)Cc2ccc(O)cc2)C(=O)N[C@@H](Cc2ccc([N+](=O)[O-])cc2)C(=O)N[C@@H]1C(=O)O (H-YC[Phe(4-NO2)][Pen]-OH; disulfide 2-4) | 1.7 nM |  | 
CC(C)(C)c1ccc(C[C@@H]2NC(=O)[C@@H](NC(=O)[C@@H](N)Cc3ccc(O)cc3)CSSC(C)(C)[C@@H](C(=O)O)NC2=O)cc1 (H-YC[Phe(4-tBu)][Pen]-OH; disulfide 2-4) | 648 nM |  | 37 nM
CC1(C)SSC[C@H](NC(=O)[C@@H](N)Cc2ccc(O)cc2)C(=O)N[C@@H](Cc2cccc(O)c2)C(=O)N[C@@H]1C(=O)O (H-YC[mTyr][Pen]-OH; disulfide 2-4) | 148 nM |  | 9.3 nM
